Values of other authors as cited in paper PMC9298787 (The Prostate, 2021).
Where “and” joins values, the source holds several entries; their conditions need not be identical. Equal entries are not always repeated.

Conditions: single oral 160 mg enzalutamide, fasting, three matched healthy controls

AUC0‐∞: 245.8 µg·h/mL and 224.8 µg·h/mL
Cmax: 3800 ng/mL and 4600 ng/mL
t1/2: 115.3 h and 108.3 h and 111.6 h
SMILES: CNC(=O)c1ccc(N2C(=S)N(c3ccc(C#N)c(C(F)(F)F)c3)C(=O)C2(C)C)cc1F [enzalutamide]
